Values joined by “and” are separate entries in the source; they are usually repeats but may differ in a detail not shown here. Equal entries are not always repeated. Inconclusive results and toxic doses are left out. Rule for the calls: active = survival T/C of 150% or more; inactive = T/C below 125% in these data.
Tested on: CD2F1 mice, L1210 leukemia ip, survival T/C
Assay: NCI In Vivo Anticancer Drug Screen. Data for tumor model L1210 Leukemia (intraperitoneal) in CD2F1 (CDF1) mice
Conditions: higher = longer survival
Summary of the method: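 Each value reflects a quotient of treated over vehicle control outcomes in mice with a transplanted tumor.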

[1] = endpoint: mean survival time, dose: 100.0 mg/kg/injection, schedule: Q04DX003 (ip), vehicle: saline with Tween-80
[2] = endpoint: mean survival time, dose: 200.0 mg/kg/injection, schedule: Q04DX003 (ip), vehicle: saline with Tween-80
[3] = endpoint: mean survival time, dose: 400.0 mg/kg/injection, schedule: Q04DX003 (ip), vehicle: saline with Tween-80
[4] = endpoint: mean survival time, dose: 100.0 mg/kg/injection, schedule: Q04DX003 (ip), vehicle: other
[5] = endpoint: mean survival time, dose: 200.0 mg/kg/injection, schedule: Q04DX003 (ip), vehicle: other
[6] = endpoint: mean survival time, dose: 100.0 mg/kg/injection, schedule: Q01DX001 (ip), vehicle: saline with Tween-80
[7] = endpoint: mean survival time, dose: 200.0 mg/kg/injection, schedule: Q01DX001 (ip), vehicle: saline with Tween-80
[8] = endpoint: mean survival time, dose: 400.0 mg/kg/injection, schedule: Q01DX001 (ip), vehicle: saline with Tween-80
[9] = endpoint: mean survival time, dose: 100.0 mg/kg/injection, schedule: Q01DX009 (ip), vehicle: saline with Tween-80
[10] = endpoint: mean survival time, dose: 200.0 mg/kg/injection, schedule: Q01DX009 (ip), vehicle: saline with Tween-80
[11] = endpoint: mean survival time, dose: 400.0 mg/kg/injection, schedule: Q01DX009 (ip), vehicle: saline with Tween-80
[12] = endpoint: mean survival time, dose: 12.5 mg/kg/injection, schedule: Q01DX009 (ip), vehicle: saline with Tween-80
[13] = endpoint: mean survival time, dose: 100.0 mg/kg/injection, schedule: Q01DX001 (ip), vehicle: saline
[14] = endpoint: mean survival time, dose: 200.0 mg/kg/injection, schedule: Q01DX001 (ip), vehicle: saline
[15] = endpoint: mean survival time, dose: 400.0 mg/kg/injection, schedule: Q01DX001 (ip), vehicle: saline
[16] = endpoint: mean survival time, dose: 50.0 mg/kg/injection, schedule: Q01DX009 (ip), vehicle: saline
[17] = endpoint: mean survival time, dose: 100.0 mg/kg/injection, schedule: Q01DX009 (ip), vehicle: saline

Measured: T/C

CN(C)C(=O)Sc1ccc(S(=O)(=O)F)cc1F
inactive: endpoint: mean survival time, dose: 100.0 mg/kg/injection, schedule: Q04DX002 (ip), vehicle: saline with Tween-80 91 % of control | endpoint: mean survival time, dose: 200.0 mg/kg/injection, schedule: Q04DX002 (ip), vehicle: saline with Tween-80 91 % of control

Nc1ccn(C2OC(CO)C3OP(=O)(O)OC32)c(=O)n1 (stereo unspecified)
inactive: endpoint: mean survival time, dose: 12.5 mg/kg/injection, schedule: Q01DX005 (ip), vehicle: water 96 % of control | endpoint: mean survival time, dose: 25.0 mg/kg/injection, schedule: Q01DX005 (ip), vehicle: water 99 % of control | endpoint: mean survival time, dose: 50.0 mg/kg/injection, schedule: Q01DX005 (ip), vehicle: water 99 % of control | endpoint: mean survival time, dose: 100.0 mg/kg/injection, schedule: Q01DX005 (ip), vehicle: water 94 % of control | endpoint: mean survival time, dose: 200.0 mg/kg/injection, schedule: Q01DX005 (ip), vehicle: water 96 % of control

O=C(/C(=N/N(C(=O)c1ccccc1)c1ccccc1)c1ccccc1)c1ccccc1
inactive: [1] 102 % of control | [2] 88 % of control | [3] 95 % of control

Nc1cccc2cn[nH]c12
inactive: [4] 98 % of control | [5] 96 % of control | endpoint: mean survival time, dose: 400.0 mg/kg/injection, schedule: Q04DX003 (ip), vehicle: other 101 % of control

CCOC(=O)C(CC)(C(=O)OCC)c1c(Cl)c(=O)oc2ccc(Cl)cc12
inactive: [6] 100 % of control | [7] 97 % of control | [8] 91 % of control

COC(=O)c1ccc(SSc2ccc(C(=O)OC)cc2[N+](=O)[O-])c([N+](=O)[O-])c1
inactive: [1] 103 % of control | [2] 96 % of control | [3] 96 % of control

Nc1nc(=S)n(C2OCC(O)C(O)C2O)c2ccccc12 (stereo unspecified)
inactive: endpoint: mean survival time, dose: 12.5 mg/kg/injection, schedule: Q01DX005 (ip), vehicle: distilled water + Tween-80 97 % of control | endpoint: mean survival time, dose: 25.0 mg/kg/injection, schedule: Q01DX005 (ip), vehicle: distilled water + Tween-80 96 % of control | endpoint: mean survival time, dose: 50.0 mg/kg/injection, schedule: Q01DX005 (ip), vehicle: distilled water + Tween-80 96 % of control | endpoint: mean survival time, dose: 100.0 mg/kg/injection, schedule: Q01DX005 (ip), vehicle: distilled water + Tween-80 96 % of control | endpoint: mean survival time, dose: 200.0 mg/kg/injection, schedule: Q01DX005 (ip), vehicle: distilled water + Tween-80 91 % of control

CC1(c2ccccc2)OCCO1
inactive: [6] 97 % of control | [9] 95 % of control | [1] 100 % of control | [7] 94 % of control | [10] 93 % of control | [2] 100 % of control | [8] 97 % of control | [11] 97 % of control | [3] 97 % of control

O=C1NC(=O)c2cc(C(F)(F)F)ccc21
inactive: endpoint: mean survival time, dose: 6.25 mg/kg/injection, schedule: Q01DX009 (ip), vehicle: saline with Tween-80 95 % of control | [12] 89 % of control | endpoint: mean survival time, dose: 12.5 mg/kg/injection, schedule: Q04DX003 (ip), vehicle: saline with Tween-80 101 % of control | endpoint: mean survival time, dose: 25.0 mg/kg/injection, schedule: Q04DX003 (ip), vehicle: saline with Tween-80 100 % of control

COc1cccc(C(=O)C=C(C(F)(F)F)C(F)(F)F)c1
inactive: [12] 104 % of control | endpoint: mean survival time, dose: 25.0 mg/kg/injection, schedule: Q01DX009 (ip), vehicle: saline with Tween-80 109 % of control

COc1ccc(C(=O)C(CN(C)C)CN(C)C)cc1
inactive: endpoint: median survival time, dose: 3.12 mg/kg/injection, schedule: Q01DX009 (ip), vehicle: saline 96 % of control | endpoint: median survival time, dose: 6.25 mg/kg/injection, schedule: Q01DX009 (ip), vehicle: saline 103 % of control | endpoint: median survival time, dose: 12.5 mg/kg/injection, schedule: Q01DX009 (ip), vehicle: saline 104 % of control | endpoint: median survival time, dose: 25.0 mg/kg/injection, schedule: Q01DX009 (ip), vehicle: saline 114 % of control

O=S(=O)(O)SCC1NCCCN1
inactive: endpoint: mean survival time, dose: 12.5 mg/kg/injection, schedule: Q04DX002 (ip), vehicle: saline 108 % of control | endpoint: mean survival time, dose: 25.0 mg/kg/injection, schedule: Q04DX002 (ip), vehicle: saline 101 % of control | endpoint: mean survival time, dose: 50.0 mg/kg/injection, schedule: Q04DX002 (ip), vehicle: saline 101 % of control

Clc1cc2n[nH]nc2c(Cl)n1
inactive: endpoint: mean survival time, dose: 25.0 mg/kg/injection, schedule: Q01DX009 (ip), vehicle: water 90 % of control | endpoint: mean survival time, dose: 50.0 mg/kg/injection, schedule: Q01DX009 (ip), vehicle: water 90 % of control | endpoint: mean survival time, dose: 100.0 mg/kg/injection, schedule: Q01DX009 (ip), vehicle: water 90 % of control

O=C(Nc1ccc(Cl)cc1)OCCN1CCOCC1
inactive: [9] 90 % of control | [1] 93 % of control | [10] 92 % of control | [2] 94 % of control | [11] 91 % of control | [3] 89 % of control

CCCCCCCCCCCCCCNC(=O)Nc1ccc(Cl)c(Cl)c1
inactive: [4] 89 % of control | [5] 86 % of control

CCOC(=O)C(Cc1ccc(Cl)cc1)P(=O)(OCC)OCC (stereo unspecified)
inactive: [13] 106 % of control | [14] 101 % of control | [15] 106 % of control

O=C(O)CS(=O)(=O)c1ccccc1
inactive: [16] 86 % of control | [17] 89 % of control

COc1ccc(NC(=O)Oc2ccccc2-c2ccccc2)cc1
inactive: [9] 98 % of control | [10] 89 % of control | [11] 89 % of control

N=c1nc2n(cc1F)[C@@H]1O[C@H](CO)[C@@H](O)[C@@H]1O2
active: endpoint: mean survival time, dose: 25.0 mg/kg/injection, schedule: Q01DX009 (ip), vehicle: saline 155 % of control | [16] 162 % of control and 188 % of control | endpoint: mean survival time, dose: 68.0 mg/kg/injection, schedule: Q04DX003 (ip), vehicle: saline 150 % of control | [17] 193 % of control and 250 % of control | endpoint: mean survival time, dose: 200.0 mg/kg/injection, schedule: Q01DX009 (ip), vehicle: saline 224 % of control and 303 % of control | endpoint: mean survival time, dose: 400.0 mg/kg/injection, schedule: Q01DX009 (ip), vehicle: saline 305 % of control and 331 % of control | endpoint: mean survival time, dose: 800.0 mg/kg/injection, schedule: Q01DX009 (ip), vehicle: saline 239 % of control | endpoint: median survival time, dose: 256.0 mg/kg/injection, schedule: Q01DX005 (ip), vehicle: saline 216 % of control | endpoint: median survival time, dose: 512.0 mg/kg/injection, schedule: Q01DX005 (ip), vehicle: saline 349 % of control
inactive: endpoint: mean survival time, dose: 17.0 mg/kg/injection, schedule: Q04DX003 (ip), vehicle: saline 119 % of control | [13] 110 % of control | [14] 117 % of control | [15] 120 % of control | endpoint: median survival time, dose: 16.0 mg/kg/injection, schedule: Q01DX005 (ip), vehicle: saline 124 % of control

CC(C)(C)[Si](C)(C)N1CCCOP1(=O)N(CCCl)CCCl (stereo unspecified)
inactive: endpoint: mean survival time, dose: 15.6 mg/kg/injection, schedule: Q01DX001 (ip), vehicle: distilled water + Tween-80 98 % of control | endpoint: mean survival time, dose: 31.3 mg/kg/injection, schedule: Q01DX001 (ip), vehicle: distilled water + Tween-80 102 % of control | endpoint: mean survival time, dose: 62.5 mg/kg/injection, schedule: Q01DX001 (ip), vehicle: distilled water + Tween-80 96 % of control | endpoint: mean survival time, dose: 125.0 mg/kg/injection, schedule: Q01DX001 (ip), vehicle: distilled water + Tween-80 108 % of control | endpoint: mean survival time, dose: 250.0 mg/kg/injection, schedule: Q01DX001 (ip), vehicle: distilled water + Tween-80 101 % of control | endpoint: mean survival time, dose: 500.0 mg/kg/injection, schedule: Q01DX001 (ip), vehicle: distilled water + Tween-80 104 % of control

O=CNc1ccccc1Cl
inactive: [9] 101 % of control | [1] 94 % of control | [10] 98 % of control | [2] 95 % of control | [11] 91 % of control | [3] 91 % of control

O=c1ccn(C2OC(CO)C(O)C2O)c(=O)[n]1[Hg][c]1ccccc1 (stereo unspecified)
inactive: endpoint: median survival time, dose: 0.79 mg/kg/injection, schedule: Q01DX005 (ip), vehicle: saline 116 % of control and 111 % of control | endpoint: median survival time, dose: 1.56 mg/kg/injection, schedule: Q01DX005 (ip), vehicle: saline 100 % of control | endpoint: median survival time, dose: 3.12 mg/kg/injection, schedule: Q01DX005 (ip), vehicle: saline 100 % of control and 101 % of control and 103 % of control | endpoint: median survival time, dose: 6.25 mg/kg/injection, schedule: Q01DX005 (ip), vehicle: saline 100 % of control and 101 % of control and 107 % of control | endpoint: median survival time, dose: 12.5 mg/kg/injection, schedule: Q01DX005 (ip), vehicle: saline 101 % of control

Reference: PubChem BioAssay AID256 (DTP/NCI, 2004)
